# Data: EP4748842A1, “CAMPTOTHECIN COMPOUND, ANTIBODY DRUG CONJUGATE, AND PREPARATION METHOD THEREFOR AND USE THEREOF” (Shanghai Pharmaceuticals Holding Co., Ltd., priority 2023, dated 2025)
# Where two headings read alike, the source gives them in different places.
# Experiments:
# Test in all cases: CTG assay, effect on proliferation ability of tumor cells
# Assay type in all cases: cell-based, human
# Calu-3 = conditions: Calu-3, 168 h, read-out: IC50 (nM) Calu-3
# Description: (§1) Test method for the effect of camptothecin on the proliferation ability of tumor cells: The effect of camptothecin derivatives K1, K2, K3, K4, K5, K6, K7, K8, and K9 on the proliferation ability of tumor cells was tested using the CTG assay. Test cells (see Table 1) were digested, resuspended, and counted. The supernatant was removed by centrifugation, and the cell density was adjusted. Cell counting was performed with a cell counter: 20 µl of the cell suspension was aspirated, mixed with 20 µl of trypan blue, and 20 µl of the mixture was taken for cell counting. Cells were seeded into 96-well cell culture plates respectively, with 180 µl added to each well, and 1000 cells were plated per well. The plate was tapped gently to mix, and then placed in a 37°C cell incubator for incubation for 16 hours. Compounds were diluted with McCoy's 5A medium, and 20 µl was added to each well to achieve a maximum concentration of 100 nM, followed by 3-fold serial dilution with 10 concentration points. DMSO was used as the vehicle control, and 20 µl of McCoy's 5A medium was added to the blank control. The plate was tapped gently to mix, and then placed in a 37°C cell incubator for incubation for 7 days. After 7 days of incubation, the cell plate was taken out of the incubator, the culture medium was aspirated, 20 µl of culture medium was added to each well, and then 20 µl of CTG was added to each well. The plate was shaken on a shaker for 5 min and incubated at room temperature for 10 min. Then, 30 µl of the reaction solution was transferred to a Viewplate-96 white microplate (transparent bottom), and data analysis was performed on an EnVision microplate reader. [formula] Table 1. Overview of cell lines used in this screening
# HCT-116 = conditions: HCT-116, 168 h, read-out: IC50 (nM) HCT-116
# Description: as §1
# NCI-N87 = conditions: NCI-N87, 168 h, read-out: IC50 (nM) NCI-N87
# Description: as §1
# [1] = human lung adenocarcinoma cells, 7 days incubation, CTG
# [2] = human colon cancer cells, 7 days incubation, CTG
# [3] = human gastric cancer cells, 7 days incubation, CTG
SMILES,IC50 (Calu-3; Homo sapiens) [nM],IC50 (HCT-116; Homo sapiens) [nM],IC50 (NCI-N87; Homo sapiens) [nM],IC50 (Calu-3; [1]) [nM],IC50 (HCT-116; [2]) [nM],IC50 (NCI-N87; [3]) [nM]
CC[C@@]1(O)C(=O)OCc2c1cc1n(c2=O)Cc2c-1nc1cc(F)c(C)cc1c2-c1cn(CCO)nn1 [Compound K1],0.22,0.77,1.89,,,
CC[C@@]1(O)C(=O)OCc2c1cc1n(c2=O)Cc2c-1nc1cc(F)c(C)cc1c2-c1cn(CCCO)nn1 [Compound K2],,,,0.29,0.89,2.21
CC[C@@]1(O)C(=O)OCc2c1cc1n(c2=O)Cc2c-1nc1cc(F)c(C)cc1c2-c1cn(CCCCO)nn1 [Compound K3],,,,0.43,1.36,3.11
CC[C@@]1(O)C(=O)OCc2c1cc1n(c2=O)Cc2c-1nc1cc(F)c(C)cc1c2-c1cnn(CCO)c1 [Compound K4],0.15,0.42,1.72,,,
CC[C@@]1(O)C(=O)OCc2c1cc1n(c2=O)Cc2c-1nc1cc(F)c(C)cc1c2-c1cnn(CCCO)c1 [Compound K5],,,,0.18,0.35,2.07
CC[C@@]1(O)C(=O)OCc2c1cc1n(c2=O)Cc2c-1nc1cc(F)c(C)cc1c2-c1cnn(CCCCO)c1 [Compound K6],,,,0.28,0.78,2.88
CC[C@@]1(O)C(=O)OCc2c1cc1n(c2=O)Cc2c-1nc1cc(F)c(C)cc1c2-c1ccn(CCO)n1 [Compound K7],,,,1.13,2.24,5.34
CC[C@@]1(O)C(=O)OCc2c1cc1n(c2=O)Cc2c-1nc1cc(F)c(C)cc1c2-c1ccn(CCCO)n1 [Compound K8],,,,1.24,3.21,6.76
CC[C@@]1(O)C(=O)OCc2c1cc1n(c2=O)Cc2c-1nc1cc(F)c(C)cc1c2-c1ccn(CCCCO)n1 [Compound K9],,,,1.89,3.87,7.82
